One experiment concerns the target T1, ERK1 (Homo sapiens, UniProt P27361).
T1 construct: purchased Invitrogen PR5254B
Nature of the experiment: ERK1 kinase assay (TR-FRET). The following applies: Abs_IC50, ATP 10 μM; ±0.608, n=16. Format: biochemical. As to the method: The purpose of this assay is to measure the ability of compounds to inhibit ERK1 kinase activity. Perform the ERK1 kinase assay in vitro using a TR-FRET assay. […] Incubate the reaction mixture at room temperature for 60 minutes. Stop the reaction by addition of 12.5 μL of stop buffer (10 mM EDTA, 2 nM Tb-anti-pATF2 (pThr71) antibody, Invitrogen, #PV4448) in TR-FRET dilution buffer (Invitrogen, # PV3574). Incubate the plates at room temperature for an additional 60 minutes and read on an ENVISION® (PerkinElmer) plate reader at the excitation wavelength 340 nm. Calculate the TR-FRET ratio by dividing the GFP acceptor emission signal (at 520 nm) by the Tb donor emission signal (at 495 nm). Calculate percent inhibition using compound treated wells relative to on-plate Max (DMSO control) and Min (No enzyme added) control wells TR-FRET ratio data {% inhibition=100−[(test compound−median Min)/(median Max−median Min)×100]}). Test all compounds at 10 concentrations (20 μM to 0.001 μM) using a 1:3 dilution scheme. Derive Abs_IC50 values by fitting percent inhibition and ten-point concentration data to a 4-parameter nonlinear logistic equation (equation 205) using ACTIVITYBASE® 7.3 (ID Business Solutions Limited).

For experiment [1], the system named is RSK1 phosphorylation in HCT116 tumor xenograft. The experiment is described as follows: In vivo target inhibition (IVTI) assay (pRSK1 ELISA), HCT116 xenograft. To be noted: oral. Further details: species or system female athymic nude mice. As to the method:
The purpose of this assay is to measure the ability of a test compound to inhibit ERK1/2 substrate phosphorylation in an animal model. Implant female athymic nude mice (22-25 g) from Harlan Laboratories with 5×10e^6 HCT116 colorectal cancer cells (ATCC, # CCL-247) subcutaneously in the right flank region in 200 μL of 1:1 Hank's Balanced Salt Solution (HBSS)+Matrigel solution. Measure tumor growth and body weight twice per week beginning the seventh day after the implantation. When tumor sizes reach 300-500 mm^3, randomize animals and group into groups of five animals. […]
Pulverize tumors in liquid nitrogen and lyse in 1× lysis buffer (MSD, #R60TX-3) containing 1× halt protease & phosphatase inhibitor cocktail (Thermo Scientific, #0861281), 1 mM phenylmethanesulfonyl fluoride (PMSF) (Sigma, #93482-50ML-F) and 1 μM sodium metavanadate (Sigma, #590088) using Matrix D beads (MP Biomedical, #6913-500) in a FastPrep-24™ Cell Disrupter machine (MP Biomedical) in a cold room (4° C.). […] Cool plate to room temperature and measure the absorbance at or near 562 nm on a plate reader (Envision plate reader from Perkin Elmer). Subtract the average 562 nm absorbance measurement of the blank standard replicates from the 562 nm measurements of all other individual standard and unknown (cell or tumor lysate) sample replicates. […]

For a further experiment, the system named is CALU-6. The experiment is described as follows: Xenograft tumor model CALU-6. The class given is in vivo. To be noted: oral.

T1 sequence (P27361 whole entry): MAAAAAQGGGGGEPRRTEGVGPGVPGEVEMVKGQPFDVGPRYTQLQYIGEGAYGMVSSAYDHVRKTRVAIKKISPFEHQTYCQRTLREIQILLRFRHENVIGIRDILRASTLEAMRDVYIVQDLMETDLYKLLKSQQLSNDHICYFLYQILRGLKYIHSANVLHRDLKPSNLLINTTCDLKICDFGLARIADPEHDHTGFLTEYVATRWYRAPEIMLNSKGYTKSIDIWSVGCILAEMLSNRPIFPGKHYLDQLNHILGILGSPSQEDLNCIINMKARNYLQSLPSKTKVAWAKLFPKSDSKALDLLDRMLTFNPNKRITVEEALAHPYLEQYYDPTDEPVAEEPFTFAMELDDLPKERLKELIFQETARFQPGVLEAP

For the compound `COCCN1C(=O)c2cc(-c3ccnc(Nc4ccnn4C)c3)sc2C1(C)C` [Example 1, 5-(2-Methoxyethyl)-6,6-dimethyl-2-{2-[(1-methyl-1H-pyrazol-5-yl)amino]pyridin-4-yl}-5,6-dihydro-4H-thieno[2,3-c]pyrrol-4-one], 1.5 nM corresponded to half-maximal inhibition on ERK1 (IC50). Further, the “TED50 (pRSK1 inhibition in tumor)” value in experiment [1] was determined as 12 mg/kg. Further, the “Delta T/C (%)” value amounted to 44% in the experiment with CALU-6 (CALU-6, 10 mg/kg BID, p 0.013); 46% with CALU-6 (CALU-6, 25 mg/kg QD, p 0.010); 92% in the experiment on CALU-6 (CALU-6, 50 mg/kg QD, p <0.001). The “Regression (%)” value with CALU-6 (CALU-6, 25 mg/kg BID, p <0.001) is given as −10%; with CALU-6 (CALU-6, 50 mg/kg BID, p <0.001) it was −75%; with CALU-6 (CALU-6, 75 mg/kg QD, p <0.001), −38%.
